Measured values reported in paper PMC4992173, “Divergent synthesis and identification of the cellular targets of deoxyelephantopins” (Nature Communications, 2016).

What was measured:
[1] = system: 11 identified targets in MCF7 cells; assay: Targeted in situ competitive profiling in live MCF7 cells, all 11 targets; type: cell-based, human; details: intact MCF7 cells, 20 µM, 4 h, then 10 µM 24c
Source text: (§1) In our efforts to determine the direct molecular targets of deoxyelephantopin we first performed a gel-based competitive in situ proteomic profiling assay[41] […] While the greater conformational flexibility of probe 24c could potentially lead to more promiscuous target engagement relatively to deoxyelephantopin, it was favoured based on the fact that an alkyne moiety appended to the rigid scaffold of deoxyelephantopin may hinder some of its interactions. MCF7 cells were pretreated with various concentrations of deoxyelephantopin for 4 h, harvested, lysed and the lysates were treated with the fluorogenic probe 24c-Cy3 (10 μM; Supplementary Fig. 10). […] Furthermore, cells were pretreated with 20 μM concentration of deoxyelephantopin or 24c and the proteomic profiles were compared (Fig. 6b, Supplementary Fig. 11). Multiple bands were detected that were equally competed by both DEP and 24c, thus again confirming that 24c can be used as an acceptable clickable analogue of deoxyelephantopin in pulldown assays. Having established the optimal labelling conditions by SDS–PAGE, we next carried out a mass spectrometry-based competitive profiling assay[42] coupled with the method of stable isotope labelling of amino acids in culture (SILAC)[43]. […]
(§2) Figure 6 Proteome-wide identification of deoxyelephantopin targets. […] Quantification was performed using label-free quantification (LFQ) method (n=4). […]

[2] = target: T1, Protein HGH1 homolog (HGH1) (Homo sapiens, UniProt Q9BTY7); assay: In situ competitive profiling in live MCF7 cells (LFQ): HGH1; type: cell-based; details: 4 h, then 10 µM 24c, n=4
T1 construct: 1,522 proteins were enriched from MCF7 cells by 10 μM probe 24c; endogenous in cells; host or cells: MCF7
Source text: as §1, §2

T1 sequence (Q9BTY7 whole entry): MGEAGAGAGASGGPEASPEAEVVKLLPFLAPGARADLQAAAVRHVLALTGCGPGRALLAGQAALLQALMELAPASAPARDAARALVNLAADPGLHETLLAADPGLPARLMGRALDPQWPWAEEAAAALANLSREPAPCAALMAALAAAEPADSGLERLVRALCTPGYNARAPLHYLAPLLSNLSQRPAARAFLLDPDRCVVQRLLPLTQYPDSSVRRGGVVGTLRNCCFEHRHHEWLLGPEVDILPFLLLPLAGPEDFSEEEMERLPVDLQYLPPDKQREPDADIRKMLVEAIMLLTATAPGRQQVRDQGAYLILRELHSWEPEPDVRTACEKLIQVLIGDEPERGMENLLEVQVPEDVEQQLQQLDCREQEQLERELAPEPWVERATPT

## C=C(C)C(=O)O[C@H]1CC2=C[C@@H](C/C(C)=C/[C@H]3OC(=O)C(=C)[C@H]13)OC2=O [deoxyelephantopin]
[1]
  competition of all 11 targets in situ: > 70%
[2]
  LFQ ratio 20 µM Deoxyelephantopin/DMSO with 24c: 0.00
